This note sets out measurements from ChEMBL document CHEMBL1201861, “Genomics of Drug Sensitity in Cancer screening data, Wellcome Trust Sanger Institute”.

For orientation: IC50 means the concentration that gives 50% inhibition.

In one assay the test system is COLO-800. Kind of assay: cells. It counts as functional, cell-based, Homo sapiens. Particulars: Homo sapiens, COLO-800.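 Further: growth inhibition of COLO-800 cells, read out with a cell viability assay.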
Description: SANGER: Inhibition of human COLO-800 cell growth in a cell viability assay.
With `C/C(=C\c1csc(C)n1)[C@@H]1C[C@@H]2O[C@]2(C)CCC[C@H](C)[C@H](O)[C@@H](C)C(=O)C(C)(C)[C@@H](O)CC(=O)O1` [PATUPILONE], the IC50 was more than 32 nM.

The subject of the next assay is COLO-829. Nature of the assay: cells. The assay is classed as functional, cell-based, Homo sapiens. Particulars: Homo sapiens, COLO-829.
Description: SANGER: Inhibition of human COLO-829 cell growth in a cell viability assay.
`C/C(=C\c1csc(C)n1)[C@@H]1C[C@@H]2O[C@]2(C)CCC[C@H](C)[C@H](O)[C@@H](C)C(=O)C(C)(C)[C@@H](O)CC(=O)O1` [PATUPILONE]: the IC50 was more than 32 nM.

For a further assay, the system named is CTV-1. Kind of assay: cells. It counts as functional, cell-based, Homo sapiens. Particulars: Homo sapiens, CTV-1.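 Further: growth inhibition of the cell line, read out with a cell viability assay.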
Description: SANGER: Inhibition of human CTV-1 cell growth in a cell viability assay.
`C/C(=C\c1csc(C)n1)[C@@H]1C[C@@H]2O[C@]2(C)CCC[C@H](C)[C@H](O)[C@@H](C)C(=O)C(C)(C)[C@@H](O)CC(=O)O1` [PATUPILONE] registered an IC50 of 5.16 nM.

A further assay concerns CW-2. Kind of assay: cells. Particulars: Homo sapiens, CW-2. The assay is classed as functional, cell-based, Homo sapiens.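 Further: growth inhibition of CW-2 cells, read out by a cell viability assay.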
Description: SANGER: Inhibition of human CW-2 cell growth in a cell viability assay.
In turn, `C/C(=C\c1csc(C)n1)[C@@H]1C[C@@H]2O[C@]2(C)CCC[C@H](C)[C@H](O)[C@@H](C)C(=O)C(C)(C)[C@@H](O)CC(=O)O1` [PATUPILONE] had an IC50 of more than 32 nM.

The next assay relates to D283 Med. Nature of the assay: cells. The assay is classed as functional, cell-based, Homo sapiens. Particulars: Homo sapiens, D283 Med.
Description: SANGER: Inhibition of human D-283MED cell growth in a cell viability assay.
For the compound `C/C(=C\c1csc(C)n1)[C@@H]1C[C@@H]2O[C@]2(C)CCC[C@H](C)[C@H](O)[C@@H](C)C(=O)C(C)(C)[C@@H](O)CC(=O)O1` [PATUPILONE], the IC50 is more than 32 nM.

Another assay concerns EKVX. Kind of assay: cells. It counts as functional, cell-based, Homo sapiens. Particulars: Homo sapiens, EKVX.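 Further: growth inhibition of human EKVX cells, read out with a cell viability assay.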
Description: SANGER: Inhibition of human EKVX cell growth in a cell viability assay.
With `C/C(=C\c1csc(C)n1)[C@@H]1C[C@@H]2O[C@]2(C)CCC[C@H](C)[C@H](O)[C@@H](C)C(=O)C(C)(C)[C@@H](O)CC(=O)O1` [PATUPILONE], the IC50 is more than 32 nM.

For another assay, the system named is ES7. Kind of assay: cells. The assay is classed as functional, cell-based, Homo sapiens. The settings on record: Homo sapiens, ES7.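 Further: growth inhibition of cultured human ES7 cells, read out as cell viability.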
Description: SANGER: Inhibition of human ES7 cell growth in a cell viability assay.
`C/C(=C\c1csc(C)n1)[C@@H]1C[C@@H]2O[C@]2(C)CCC[C@H](C)[C@H](O)[C@@H](C)C(=O)C(C)(C)[C@@H](O)CC(=O)O1` [PATUPILONE]: the concentration for half-maximal inhibition (IC50) is 5.87 nM.

For another assay, the system named is ETK-1. Nature of the assay: cells. Particulars: Homo sapiens, ETK-1. It counts as functional, cell-based, Homo sapiens.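 Further: growth inhibition of human ETK-1 cells, read out with a cell viability assay.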
Description: SANGER: Inhibition of human ETK-1 cell growth in a cell viability assay.
Compound `C/C(=C\c1csc(C)n1)[C@@H]1C[C@@H]2O[C@]2(C)CCC[C@H](C)[C@H](O)[C@@H](C)C(=O)C(C)(C)[C@@H](O)CC(=O)O1` [PATUPILONE] returned an IC50 of 0.979 nM.

Another assay has as its system EW-18. Nature of the assay: cells. The assay is classed as functional, cell-based, Homo sapiens. The settings on record: Homo sapiens, EW-18; read-out: IC50.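 Further: growth inhibition of EW-18 cells, read out by a cell viability assay.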
Description: SANGER: Inhibition of human EW-18 cell growth in a cell viability assay.
As for `C/C(=C\c1csc(C)n1)[C@@H]1C[C@@H]2O[C@]2(C)CCC[C@H](C)[C@H](O)[C@@H](C)C(=O)C(C)(C)[C@@H](O)CC(=O)O1` [PATUPILONE], the IC50 turned out to be 2.63 nM.

A further assay deals with EOL1. Kind of assay: cells. Particulars: Homo sapiens, EOL1. It counts as functional, cell-based, Homo sapiens.
Description: SANGER: Inhibition of human EoL-1-cell cell growth in a cell viability assay.
Compound `C/C(=C\c1csc(C)n1)[C@@H]1C[C@@H]2O[C@]2(C)CCC[C@H](C)[C@H](O)[C@@H](C)C(=O)C(C)(C)[C@@H](O)CC(=O)O1` [PATUPILONE] came in with an IC50 of 12.9 nM.

For another assay, the system named is GCIY. Kind of assay: cells. The assay is classed as functional, cell-based, Homo sapiens. The settings on record: Homo sapiens, GCIY.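 Further: growth inhibition of the human GCIY cell line, read out by a cell viability assay.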
Description: SANGER: Inhibition of human GCIY cell growth in a cell viability assay.
The compound `C/C(=C\c1csc(C)n1)[C@@H]1C[C@@H]2O[C@]2(C)CCC[C@H](C)[C@H](O)[C@@H](C)C(=O)C(C)(C)[C@@H](O)CC(=O)O1` [PATUPILONE] had an IC50 of 6.59 nM.

In another assay the test system is HAL-01. Nature of the assay: cells. It counts as functional, cell-based, Homo sapiens. Particulars: Homo sapiens, HAL-01.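 Further: growth inhibition of human HAL-01 cells, read out with a cell viability assay.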
Description: SANGER: Inhibition of human HAL-01 cell growth in a cell viability assay.
The compound `C/C(=C\c1csc(C)n1)[C@@H]1C[C@@H]2O[C@]2(C)CCC[C@H](C)[C@H](O)[C@@H](C)C(=O)C(C)(C)[C@@H](O)CC(=O)O1` [PATUPILONE] showed an IC50 of 5.02 nM.

The subject of another assay is HCC1187. Kind of assay: cells. The assay is classed as functional, cell-based, Homo sapiens. Particulars: Homo sapiens, HCC1187.
Description: SANGER: Inhibition of human HCC1187 cell growth in a cell viability assay.
`C/C(=C\c1csc(C)n1)[C@@H]1C[C@@H]2O[C@]2(C)CCC[C@H](C)[C@H](O)[C@@H](C)C(=O)C(C)(C)[C@@H](O)CC(=O)O1` [PATUPILONE] yielded an IC50 of 22.6 nM.

The test system of a further assay is HCC2218. Nature of the assay: cells. It counts as functional, cell-based, Homo sapiens. Particulars: Homo sapiens, HCC2218.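 Further: cell viability assay read-out, with IC50 given as the concentration that inhibits growth of the cell line.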
Description: SANGER: Inhibition of human HCC2218 cell growth in a cell viability assay.
For the compound `C/C(=C\c1csc(C)n1)[C@@H]1C[C@@H]2O[C@]2(C)CCC[C@H](C)[C@H](O)[C@@H](C)C(=O)C(C)(C)[C@@H](O)CC(=O)O1` [PATUPILONE], the half-inhibitory concentration (IC50) was 30.8 nM.

Another assay deals with HEL. Nature of the assay: cells. It counts as functional, cell-based, Homo sapiens. The settings on record: Homo sapiens, HEL.
Description: SANGER: Inhibition of human HEL cell growth in a cell viability assay.
As for `C/C(=C\c1csc(C)n1)[C@@H]1C[C@@H]2O[C@]2(C)CCC[C@H](C)[C@H](O)[C@@H](C)C(=O)C(C)(C)[C@@H](O)CC(=O)O1` [PATUPILONE], the IC50 came to 4.14 nM.

For another assay, the system named is K562. Kind of assay: cells. It counts as functional, cell-based, Homo sapiens. Particulars: Homo sapiens, K562.
Description: SANGER: Inhibition of human K-562 cell growth in a cell viability assay.
Compound `C/C(=C\c1csc(C)n1)[C@@H]1C[C@@H]2O[C@]2(C)CCC[C@H](C)[C@H](O)[C@@H](C)C(=O)C(C)(C)[C@@H](O)CC(=O)O1` [PATUPILONE] registered an IC50 of 6.89 nM.

Another assay has as its system KINGS-1. Nature of the assay: cells. It counts as functional, cell-based, Homo sapiens. Particulars: Homo sapiens, KINGS-1.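 Further: cell viability assay measuring suppression of KINGS-1 cell growth.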
Description: SANGER: Inhibition of human KINGS-1 cell growth in a cell viability assay.
For `C/C(=C\c1csc(C)n1)[C@@H]1C[C@@H]2O[C@]2(C)CCC[C@H](C)[C@H](O)[C@@H](C)C(=O)C(C)(C)[C@@H](O)CC(=O)O1` [PATUPILONE], the IC50 was more than 32 nM.

The subject of a further assay is KNS-42. Kind of assay: cells. It counts as functional, cell-based. Particulars: Homo sapiens.
Description: SANGER: Inhibition of human KNS-42 cell growth in a cell viability assay.
Turning to `C/C(=C\c1csc(C)n1)[C@@H]1C[C@@H]2O[C@]2(C)CCC[C@H](C)[C@H](O)[C@@H](C)C(=O)C(C)(C)[C@@H](O)CC(=O)O1` [PATUPILONE], it took 3.91 nM to reach half-maximal inhibition (IC50).

A further assay deals with LB1047-RCC. Nature of the assay: cells. It counts as functional, cell-based, Homo sapiens. Particulars: Homo sapiens, LB1047-RCC.
Description: SANGER: Inhibition of human LB1047-RCC cell growth in a cell viability assay.
`C/C(=C\c1csc(C)n1)[C@@H]1C[C@@H]2O[C@]2(C)CCC[C@H](C)[C@H](O)[C@@H](C)C(=O)C(C)(C)[C@@H](O)CC(=O)O1` [PATUPILONE] yielded an IC50 of 2 nM.

A further assay deals with LNCaP-Clone-FGC. Nature of the assay: cells. It counts as functional, cell-based, Homo sapiens. Particulars: Homo sapiens, LNCaP-Clone-FGC.
Description: SANGER: Inhibition of human LNCaP-Clone-FGC cell growth in a cell viability assay.
`C/C(=C\c1csc(C)n1)[C@@H]1C[C@@H]2O[C@]2(C)CCC[C@H](C)[C@H](O)[C@@H](C)C(=O)C(C)(C)[C@@H](O)CC(=O)O1` [PATUPILONE] returned an IC50 of 4.26 nM.

A further assay relates to LU-139. Nature of the assay: cells. The settings on record: Homo sapiens, LU-139. The assay is classed as functional, cell-based, Homo sapiens.
Description: SANGER: Inhibition of human LU-139 cell growth in a cell viability assay.
Turning to `C/C(=C\c1csc(C)n1)[C@@H]1C[C@@H]2O[C@]2(C)CCC[C@H](C)[C@H](O)[C@@H](C)C(=O)C(C)(C)[C@@H](O)CC(=O)O1` [PATUPILONE], the IC50 is more than 32 nM.

In a further assay the test system is MFM-223. Kind of assay: cells. It counts as functional, cell-based, Homo sapiens. Particulars: Homo sapiens, MFM-223.
Description: SANGER: Inhibition of human MFM-223 cell growth in a cell viability assay.
The compound `C/C(=C\c1csc(C)n1)[C@@H]1C[C@@H]2O[C@]2(C)CCC[C@H](C)[C@H](O)[C@@H](C)C(=O)C(C)(C)[C@@H](O)CC(=O)O1` [PATUPILONE] showed an IC50 of more than 32 nM.

Another assay deals with MSTO-211H. Kind of assay: cells. The assay is classed as functional, cell-based, Homo sapiens. Particulars: Homo sapiens, MSTO-211H.
Description: SANGER: Inhibition of human MSTO-211H cell growth in a cell viability assay.
`C/C(=C\c1csc(C)n1)[C@@H]1C[C@@H]2O[C@]2(C)CCC[C@H](C)[C@H](O)[C@@H](C)C(=O)C(C)(C)[C@@H](O)CC(=O)O1` [PATUPILONE] showed a concentration for half-maximal inhibition (IC50) of more than 32 nM.

For the next assay, the system named is NB10. Nature of the assay: cells. The settings on record: Homo sapiens, NB10. It counts as functional, cell-based, Homo sapiens.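 Further: growth inhibition of NB10 cells, read out by a cell viability assay.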
Description: SANGER: Inhibition of human NB10 cell growth in a cell viability assay.
Take `C/C(=C\c1csc(C)n1)[C@@H]1C[C@@H]2O[C@]2(C)CCC[C@H](C)[C@H](O)[C@@H](C)C(=O)C(C)(C)[C@@H](O)CC(=O)O1` [PATUPILONE]: the IC50 stood at 11 nM.
